Laboratory results taken from article PMC12675387, “Receptor interaction profiles of 4-alkoxy-2,6-dimethoxyphenethylamines (Ψ derivatives) and related amphetamines” (Frontiers in Pharmacology, 2025).

Tests used:
human 5-HT2B receptor = molecular target: T1, human 5-HT2B receptor (Homo sapiens, UniProt P41595); experiment: Activation potency and efficacy at the 5-HT2B receptor (Fluo-4 calcium, HEK 293 cells); format: cell-based; details: for Emax: HEK293, relative to 5-HT (100%), read-out: h5-HT2B activation efficacy Emax ± SD
T1 construct: expressed in transfected cells; host or cells: HEK 293 cells
T1 sequence (P41595 whole entry): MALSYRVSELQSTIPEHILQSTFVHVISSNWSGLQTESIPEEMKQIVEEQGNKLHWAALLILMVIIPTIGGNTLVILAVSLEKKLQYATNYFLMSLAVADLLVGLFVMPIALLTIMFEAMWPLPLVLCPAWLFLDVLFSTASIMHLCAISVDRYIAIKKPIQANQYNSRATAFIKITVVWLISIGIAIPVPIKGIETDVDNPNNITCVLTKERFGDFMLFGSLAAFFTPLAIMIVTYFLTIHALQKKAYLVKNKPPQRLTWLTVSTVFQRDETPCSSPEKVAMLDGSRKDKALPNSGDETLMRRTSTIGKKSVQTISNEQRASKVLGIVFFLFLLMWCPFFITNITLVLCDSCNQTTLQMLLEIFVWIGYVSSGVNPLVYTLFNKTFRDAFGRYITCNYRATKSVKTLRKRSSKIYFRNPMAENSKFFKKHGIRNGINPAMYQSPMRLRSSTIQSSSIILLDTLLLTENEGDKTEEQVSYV
Procedure: The activation potency and efficacy at the 5-HT2B receptor were determined as previously described by [Luethi et al. (2018)]. In summary, HEK 293 cells stably transfected with the human 5-HT2B receptor were seeded in poly-D-lysine-coated 96 well plates at a density of 50,000 cells per well overnight at 37 °C in high glucose Dulbecco’s modified Eagle’s medium (DMEM; Invitrogen, Zug, Switzerland) supplemented with 10% fetal calf serum (non-dialyzed and heat-inactivated), 250 mg/L Geneticin, and 100 U/mL penicillin, and 100 μg/mL streptomycin (Gibco). The growth medium was removed by snap inversion and the cells were exposed to 100 μL calcium indication Fluo-4-solution (Molecular Probes, Eugene, OR, United States) for 45 min at 31 °C. Thereafter, the Fluo-4-solution was removed once again by snap inversion and was replaced with fresh 100 μL Fluo-4-solution. Next, the cells were washed with HBSS and 20 mM HEPES using the EMBLA cell washer and then exposed to the assay buffer (100 μL per well). Afterwards, 25 μL of test compounds diluted in assay buffer were added to the plate online. Dose–response curves were determined using nonlinear regression and EC50 values were calculated. The activation efficacy was calculated relative to the 5-HT activity (defined as 100%).

human TAAR1 = molecular target: T2, human TAAR1 (Homo sapiens, UniProt Q96RJ0); experiment: Activation potency at human TAAR1 (cAMP assay, HEK 293 cells); format: cell-based
T2 construct: expressed in transfected cells; host or cells: HEK 293 cells
T2 sequence (Q96RJ0 1-339): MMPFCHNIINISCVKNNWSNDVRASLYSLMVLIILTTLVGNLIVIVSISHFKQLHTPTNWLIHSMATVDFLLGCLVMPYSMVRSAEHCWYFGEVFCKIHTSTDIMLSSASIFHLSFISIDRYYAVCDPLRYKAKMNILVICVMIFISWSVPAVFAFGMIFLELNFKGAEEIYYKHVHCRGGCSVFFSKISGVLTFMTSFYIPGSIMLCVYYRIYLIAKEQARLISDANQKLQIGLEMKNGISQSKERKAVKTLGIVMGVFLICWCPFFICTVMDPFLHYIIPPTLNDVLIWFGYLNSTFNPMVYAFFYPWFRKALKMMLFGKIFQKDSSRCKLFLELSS
Procedure: The activation potency at the human TAAR1 was determined as previously described by [Luethi et al. (2018)]. In summary, recombinant HEK 293 cells stably transfected with the human TAAR1 were grown in culture flasks composed of 30 mL high glucose DMEM with 10% heat inactivated fetal calf serum, […] Geneticin, and […] hygromycin B at 37 °C and 5% CO2. The cells were grown to 80%–90% confluency before collection. The cells were washed with phosphate-buffer saline (PBS) and 5 mL of trypsin/EDTA solution were added for 5 min at 37 °C to detach the cells from the flask. Then, 45 mL of fresh medium were added to the flask and the total mixture was put into a falcon tube, which was centrifuged for 3 min at 900 rpm at room temperature. The supernatant was aspirated, and the remaining cell pellet was resuspended in fresh medium to a concentration of 5 × 10^5 cells per mL. Next, 100 μL of the cell mixture was transferred to a 96 well plate (BIOCOAT 6640, Becton Dickinson, Allschwil, Switzerland) and incubated for 20 h at 37 °C. For the cAMP assay, the medium was removed and replaced with 50 μL PBS lacking calcium or magnesium ions. The PBS was extracted via snap inversion and the plate was gently tapped on tissue to remove any remaining PBS solution. The plate was then incubated with Krebs-Ringer Bicarbonate buffer (90 μL/well; KRB, Sigma-Aldrich) containing 1 mM IBMX for 1 h at 37 °C and 5% CO2/95% air. Test compounds were investigated in duplicate at various concentrations ranging from 300 pM to 30 μM. A cAMP standard curve (concentration range of 0.13 nM–10 μM) was included on each 96 well plate. Additionally, a reference plate was used containing RO5256390, β-phenylethylamine and p-tyramine. Cells were incubated with either 30 μL of compound solution, β-phenylethylamine (which represented the maximal response) or a basal control in PBS (supplemented with 1 mM IBMX) for 40 min at 37 °C. Thereafter, the cells were incubated with 50 μL of 3× detection mix solution (consisting of Ru-cAMP Alexa700 anti-cAMP antibody and lysis buffer) for 40 min at 37 °C, while covered with black lids and under forceful shaking. The fluorescence (456 nm excitation wavelength; 630 and 700 nm emission wavelengths) was measured using a NanoScan reader (Innovate Optische Messtechnik, Berlin, Germany) and the FRET signal was calculated using the following equation: FRET (700 nm) – P × FRET (630 nm). P was equal to Ru (700 nm)/Ru (630 nm).

hDAT = hDAT (Homo sapiens, UniProt Q01959); experiment: Radioligand binding, DAT ([3H]WIN35,428); details: hDAT Ki ± SD, [3H]WIN35,428
Chain of hDAT (Q01959 whole entry): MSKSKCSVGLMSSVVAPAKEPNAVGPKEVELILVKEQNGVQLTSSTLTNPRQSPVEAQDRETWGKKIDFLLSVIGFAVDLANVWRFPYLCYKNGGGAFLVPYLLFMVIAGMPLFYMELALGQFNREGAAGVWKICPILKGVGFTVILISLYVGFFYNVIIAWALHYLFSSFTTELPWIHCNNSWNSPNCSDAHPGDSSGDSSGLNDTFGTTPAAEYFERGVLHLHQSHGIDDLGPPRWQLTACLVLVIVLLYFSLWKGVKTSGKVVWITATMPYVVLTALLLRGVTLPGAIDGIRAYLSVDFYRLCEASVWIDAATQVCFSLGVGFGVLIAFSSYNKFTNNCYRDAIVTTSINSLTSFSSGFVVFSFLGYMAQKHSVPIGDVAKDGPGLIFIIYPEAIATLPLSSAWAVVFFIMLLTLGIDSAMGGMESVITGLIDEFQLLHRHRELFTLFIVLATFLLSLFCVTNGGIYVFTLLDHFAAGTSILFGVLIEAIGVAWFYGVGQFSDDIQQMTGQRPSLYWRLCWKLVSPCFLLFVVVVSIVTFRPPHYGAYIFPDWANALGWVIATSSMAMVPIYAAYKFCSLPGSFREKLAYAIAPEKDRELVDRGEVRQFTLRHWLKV

h5-HT2A receptor = h5-HT2A receptor (Homo sapiens, UniProt P28223); experiment: Radioligand binding, 5-HT2A receptor ([3H]ketanserin); details: for Selectivity (binding ratio) 5-HT2A/5-HT1A: preference for 5-HT2A (Ki 5-HT1A divided by Ki 5-HT2A); for Selectivity (binding ratio) 5-HT2A/5-HT2C: preference for 5-HT2A (Ki 5-HT2C divided by Ki 5-HT2A)
Chain of h5-HT2A receptor (P28223 whole entry): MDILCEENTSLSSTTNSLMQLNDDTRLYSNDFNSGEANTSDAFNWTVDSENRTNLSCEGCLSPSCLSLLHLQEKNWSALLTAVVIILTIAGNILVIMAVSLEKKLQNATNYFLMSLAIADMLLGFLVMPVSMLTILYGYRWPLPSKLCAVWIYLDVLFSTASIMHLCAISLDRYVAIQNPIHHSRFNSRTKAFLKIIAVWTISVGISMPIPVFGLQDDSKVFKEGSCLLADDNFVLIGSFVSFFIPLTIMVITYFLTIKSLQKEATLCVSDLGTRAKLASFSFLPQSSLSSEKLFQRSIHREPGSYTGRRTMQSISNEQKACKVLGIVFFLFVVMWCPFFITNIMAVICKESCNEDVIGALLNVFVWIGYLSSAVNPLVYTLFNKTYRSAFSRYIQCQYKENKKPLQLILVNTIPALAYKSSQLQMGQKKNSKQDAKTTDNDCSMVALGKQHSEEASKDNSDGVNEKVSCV

hD2 receptor = hD2 receptor (Homo sapiens, UniProt P14416); experiment: Radioligand binding, dopaminergic D2 receptor ([3H]spiperone)
Chain of hD2 receptor (P14416 whole entry): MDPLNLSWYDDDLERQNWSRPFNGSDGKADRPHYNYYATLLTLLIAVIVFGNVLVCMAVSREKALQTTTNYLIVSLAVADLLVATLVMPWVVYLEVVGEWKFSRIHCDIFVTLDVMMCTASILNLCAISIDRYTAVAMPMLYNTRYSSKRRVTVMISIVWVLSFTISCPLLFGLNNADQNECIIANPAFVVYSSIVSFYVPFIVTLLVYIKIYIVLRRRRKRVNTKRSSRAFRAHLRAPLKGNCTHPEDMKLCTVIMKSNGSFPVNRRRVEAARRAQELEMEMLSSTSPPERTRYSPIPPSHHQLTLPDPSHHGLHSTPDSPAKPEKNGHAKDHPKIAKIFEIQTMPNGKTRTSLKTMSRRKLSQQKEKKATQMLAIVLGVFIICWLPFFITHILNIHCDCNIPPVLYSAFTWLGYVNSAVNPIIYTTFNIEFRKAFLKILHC

hα2A adrenergic receptor = molecular target: T3, hα2A adrenergic receptor (Homo sapiens, UniProt P08913); experiment: Radioligand binding, α2A adrenergic receptor ([3H]rauwolscine)
T3 sequence (P08913 1-465): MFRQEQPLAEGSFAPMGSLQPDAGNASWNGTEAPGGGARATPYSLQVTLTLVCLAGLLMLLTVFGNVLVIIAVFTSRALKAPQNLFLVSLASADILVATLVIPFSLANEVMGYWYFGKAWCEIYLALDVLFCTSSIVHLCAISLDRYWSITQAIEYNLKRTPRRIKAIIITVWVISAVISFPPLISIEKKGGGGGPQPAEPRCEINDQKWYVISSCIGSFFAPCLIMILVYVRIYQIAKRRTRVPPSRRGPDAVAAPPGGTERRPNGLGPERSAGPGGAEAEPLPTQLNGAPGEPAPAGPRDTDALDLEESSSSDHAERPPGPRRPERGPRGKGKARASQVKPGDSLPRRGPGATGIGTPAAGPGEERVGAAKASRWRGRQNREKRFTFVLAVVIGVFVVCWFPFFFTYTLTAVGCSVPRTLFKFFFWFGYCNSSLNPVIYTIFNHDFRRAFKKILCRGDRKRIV

Compound: C=C(C)COc1cc(OC)c(CCN)c(OC)c1 [Ψ-2C-O-3, 2,6-dimethoxy-4-methallyloxyphenethylamine]
- EC50 (human 5-HT2B receptor): 310 ± 240 nM
- Emax (human 5-HT2B receptor): 17 ± 4%
- EC50 (human TAAR1): 100 ± 60 nM
- Ki (hDAT): 7.8 µM
- Ki (h5-HT2A receptor): 32 ± 8 nM
- Selectivity (binding ratio) 5-HT2A/5-HT1A (h5-HT2A receptor): 32
- Selectivity (binding ratio) 5-HT2A/5-HT2C (h5-HT2A receptor): 6.6
- Ki (hD2 receptor): > 6 µM
- Ki (hα2A adrenergic receptor): 280 ± 30 nM

Compound: COc1cc(OCC(F)(F)F)cc(OC)c1CC(C)N (stereo not shown) [Ψ-MTFEM, 2,6-dimethoxy-4-(2,2,2-trifluoroethoxy)amphetamine]
- EC50 (human 5-HT2B receptor): > 10000 nM
- EC50 (human TAAR1): 1100 nM
- Ki (hDAT): 6.4 µM
- Ki (h5-HT2A receptor): 570 ± 80 nM
- Selectivity (binding ratio) 5-HT2A/5-HT1A (h5-HT2A receptor): >10
- Selectivity (binding ratio) 5-HT2A/5-HT2C (h5-HT2A receptor): 9.6
- Ki (hD2 receptor): > 6 µM
- Ki (hα2A adrenergic receptor): 3800 nM

Compound: COc1cc(OCCF)cc(OC)c1CC(C)N (stereo not shown) [Ψ-MFEM, 2,6-dimethoxy-4-(2-fluoroethoxy)amphetamine]
- EC50 (human 5-HT2B receptor): > 10000 nM
- EC50 (human TAAR1): 1900 nM
- Ki (hDAT): > 8.5 µM
- Ki (h5-HT2A receptor): 1400 nM
- Selectivity (binding ratio) 5-HT2A/5-HT1A (h5-HT2A receptor): >4
- Selectivity (binding ratio) 5-HT2A/5-HT2C (h5-HT2A receptor): 7.1
- Ki (hD2 receptor): > 6 µM
- Ki (hα2A adrenergic receptor): 4100 nM

Compound: COc1cc(OC)c(CCN)c(OC)c1 [Ψ-2C-O-1, 2,4,6-trimethoxyphenethylamine]
- EC50 (human 5-HT2B receptor): 330 ± 250 nM
- Emax (human 5-HT2B receptor): 22 ± 8%
- EC50 (human TAAR1): 2300 nM
- Ki (hDAT): > 8.5 µM
- Ki (h5-HT2A receptor): 300 ± 40 nM
- Selectivity (binding ratio) 5-HT2A/5-HT1A (h5-HT2A receptor): 3.2
- Selectivity (binding ratio) 5-HT2A/5-HT2C (h5-HT2A receptor): 4
- Ki (hD2 receptor): > 6 µM
- Ki (hα2A adrenergic receptor): 780 ± 70 nM
